Data reported in patent US6638923B2, “Estra-1,3,5(10),16-tetraene derivatives” (Kyowa Hakko Kogyo Co., Ltd., priority 1999, dated 2003).

Biological target: T1, recombinant human estrone sulfatase (Homo sapiens, UniProt P08842)
T1 construct: made in house; host or cells: CHO (Chinese hamster ovary) cells
T1 sequence (P08842 22-583): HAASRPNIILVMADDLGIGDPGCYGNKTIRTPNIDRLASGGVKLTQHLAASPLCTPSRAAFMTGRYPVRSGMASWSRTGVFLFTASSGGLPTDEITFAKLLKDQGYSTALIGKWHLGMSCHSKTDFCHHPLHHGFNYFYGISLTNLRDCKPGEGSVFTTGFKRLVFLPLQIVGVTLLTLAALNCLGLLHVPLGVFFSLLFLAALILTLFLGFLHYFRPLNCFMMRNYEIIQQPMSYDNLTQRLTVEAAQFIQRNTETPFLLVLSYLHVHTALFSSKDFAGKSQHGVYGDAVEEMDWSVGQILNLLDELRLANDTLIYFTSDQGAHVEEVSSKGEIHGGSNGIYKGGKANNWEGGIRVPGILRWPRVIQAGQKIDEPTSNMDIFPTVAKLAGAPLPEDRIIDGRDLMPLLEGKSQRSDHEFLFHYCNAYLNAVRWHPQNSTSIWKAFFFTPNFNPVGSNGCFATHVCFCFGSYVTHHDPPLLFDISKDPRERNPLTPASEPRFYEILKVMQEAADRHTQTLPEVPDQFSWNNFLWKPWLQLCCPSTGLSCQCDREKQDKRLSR
Assay: Estrone sulfatase (steroid sulfatase) inhibition test
Assay type: biochemical
Details: test compound 1 μM; [6,7-3H] estrone sulfate 3.3 nmol/L; pH 7; 1 hour at 37° C.; read-out: Inhibitory activity against estrone sulfatase, Inhibition % (1 μM)
Procedure: Estrone Sulfatase (Steroid Sulfatase) Inhibition Test:
[6,7-^3H] Estrone sulfate (final concentration, 3.3 nmol/L; 300,000 dpm/tube), recombinant human estrone sulfatase (33 ng/tube) and an estra-1,3,5(10),16-tetraene derivative (final concentration, 1 μmol/L) were added to a phosphate buffer (pH 7; final volume, 0.15 mL) containing 0.25 mol/L of sucrose and 0.04 mol/L of nicotinamide, and allowed to enzymatically react for 1 hour at 37° C. The recombinant human estrone sulfatase was obtained by transforming a human estrone sulfatase gene into CHO (Chinese hamster ovary) cells and expressing it in the cells, and used after partial purification. After completion of the enzyme reaction, the reaction solution was mixed with toluene (0.5 mL), followed by stirring, and the mixture was centrifuged for 5 minutes at 9,000 rpm. Thereafter, the toluene extraction layer was separated and the radioactivity of the resulting [^3H]-estrone was measured with a liquid scintillation counter. The measurement was carried out by duplication, and the fluctuation within the assay was 10% or less. An enzyme reaction in the absence of the test compound was carried out at the same time. The activity of the test compound to inhibit estrone sulfatase was calculated by the following formula.
Inhibitory activity against estrone sulfatase (%)=100−(100×(A/B)) […]

C[C@]12CC[C@@H]3c4ccc(O)cc4CC[C@H]3[C@@H]1CC=C2C(=O)O [Compound 1, 3-hydroxyestra-1,3,5(10), 16-tetraene-17-carboxylic acid]
inhibition at 1 µM: 48%
